The values below come from patent US20090004118A1, “Multifunctional Nanoparticle Conjugates And Their Use” (priority 2004, published 2009).

The test system of one data set is factor Xa. As to the kind of experiment: Factor Xa chromogenic assay (anti Factor Xa heparin activity). The settings on record: FIG. 2. Format: biochemical.
A further data set deals with tumor cell cultures. The note with it: cited from earlier work.
For the next data set, the system named is tubulin. As to the kind of experiment: Tubulin polymerization assay. The settings on record: 10 μM paclitaxel equivalent, absorbance 340 nm, FIG. 3.
The subject of data set [1] is MCF-10A cells (normal breast cells). As to the kind of experiment: MTT cytotoxicity assay, MCF-10A cells. Type of data set: cell-based, Human. The note with it: compared to cells treated with Paclitaxel-Heparin-FA. Background: Formazan colour is commonly taken as a measure of viable cells.

For heparin, in the data set with factor Xa, the “bioactivity measured by factor Xa chromogenic assay” value came out at 179 IU/mg.
As to dynemicin, the “IC50 values for inhibition of growth of tumor cell cultures” value (from here on “IC50 values for inhibition”) with tumor cell cultures is reported as “low picomolar range”.
As to `CC(=O)O[C@H]1C(=O)[C@@]2(C)[C@H]([C@H](OC(=O)c3ccccc3)[C@]3(O)C[C@H](OC(=O)[C@H](O)[C@@H](NC(=O)c4ccccc4)c4ccccc4)C(C)=C1C3(C)C)[C@]1(OC(C)=O)CO[C@@H]1C[C@@H]2O` [paclitaxel], the “ability to induce microtubule assembly (tubulin polymerization)” value in the data set with tubulin is reported as “clear increase in absorbance”.
Turning to `Nc1nc2ncc(CNc3ccc(C(=O)N[C@@H](CCC(=O)O)C(=O)O)cc3)nc2c(=O)[nH]1` [free folate, folic acid], the “viability of normal cells” value in data set [1] is given as “relatively low”.
As to esperamicin, the “IC50 values for inhibition” value in the data set on tumor cell cultures is reported as “low picomolar range”.
As for calicheamicin, the “IC50 values for inhibition” value in the data set on tumor cell cultures is “low picomolar range”.
